Experimental data from patent publication US20170209447A1, “Use of PNP Inhibitor to Treat Relapse of Malignancy after Hematopoietic Stem Cell Transplant” (Nitor Therapeutics, priority 2014, published 2017).

What was measured:
Format in all cases: cell-based
[1] = biological target: T1, human TLR3 (Homo sapiens, UniProt O15455); assay: TLR ligand screening: NF-κB SEAP reporter in HEK293 cells expressing TLR3; conditions: one concentration: NTR001 10 uM, Inosine 100 uM, triplicate, FIG. 2
T1 construct: expressed in transfected cells; host or cells: HEK293
T1 sequence (O15455 24-904): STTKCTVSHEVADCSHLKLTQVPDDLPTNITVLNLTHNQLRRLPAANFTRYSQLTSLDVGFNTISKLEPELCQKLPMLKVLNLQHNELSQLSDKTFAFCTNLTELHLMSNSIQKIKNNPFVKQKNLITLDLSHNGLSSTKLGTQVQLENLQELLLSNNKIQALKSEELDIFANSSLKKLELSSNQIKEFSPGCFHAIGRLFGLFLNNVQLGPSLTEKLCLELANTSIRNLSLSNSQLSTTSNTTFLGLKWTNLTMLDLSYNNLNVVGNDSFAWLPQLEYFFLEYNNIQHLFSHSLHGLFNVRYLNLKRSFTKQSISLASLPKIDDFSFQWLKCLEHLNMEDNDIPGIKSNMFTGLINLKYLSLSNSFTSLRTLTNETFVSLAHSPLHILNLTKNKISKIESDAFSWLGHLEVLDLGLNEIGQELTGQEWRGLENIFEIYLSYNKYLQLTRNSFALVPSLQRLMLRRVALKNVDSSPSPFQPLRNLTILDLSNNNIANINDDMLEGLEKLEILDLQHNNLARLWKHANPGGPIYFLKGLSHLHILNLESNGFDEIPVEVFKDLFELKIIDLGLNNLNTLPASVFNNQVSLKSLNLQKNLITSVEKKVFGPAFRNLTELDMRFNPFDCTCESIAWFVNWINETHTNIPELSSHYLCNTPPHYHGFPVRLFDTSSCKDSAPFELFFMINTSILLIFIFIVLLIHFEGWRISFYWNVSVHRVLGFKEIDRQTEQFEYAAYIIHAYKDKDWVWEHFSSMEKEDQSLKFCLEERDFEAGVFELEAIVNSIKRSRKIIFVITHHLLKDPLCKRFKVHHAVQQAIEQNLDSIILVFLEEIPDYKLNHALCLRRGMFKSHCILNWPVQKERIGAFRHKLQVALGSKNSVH
Protocol: (§1) Toll-Like Receptor (TLR) Ligand Screening: In-vitro Activity of the PNPi, Guanosine and Inosine on Seven Different Human TLRs (TLR2, 3, 4, 5, 7, 8 and 9) as a Potential Agonist.
(§2) Method: TLR stimulation is tested by assessing NF-KB activation in HEK293 cells expressing a given TLR. The Secreted Embryonic Alkaline Phosphatase (SEAP) reporter is under the control of a promoter inducible by the transcription factor NF-κB.
(§3) This reporter gene allows the monitoring of signaling through the TLR, based on the activation of NF-κB. The compounds are evaluated at one concentration and compared to control ligands. This step is performed in triplicate.

[2] = biological target: T2, human TLR4 (Homo sapiens, UniProt O00206); assay: TLR ligand screening: NF-κB SEAP reporter in HEK293 cells expressing TLR4; conditions: one concentration: Guanosine 100 uM, NTR001 10 uM, Inosine 100 uM; HEK293; triplicate; FIG. 2
T2 construct: expressed in transfected cells; host or cells: HEK293
T2 sequence (O00206 24-839): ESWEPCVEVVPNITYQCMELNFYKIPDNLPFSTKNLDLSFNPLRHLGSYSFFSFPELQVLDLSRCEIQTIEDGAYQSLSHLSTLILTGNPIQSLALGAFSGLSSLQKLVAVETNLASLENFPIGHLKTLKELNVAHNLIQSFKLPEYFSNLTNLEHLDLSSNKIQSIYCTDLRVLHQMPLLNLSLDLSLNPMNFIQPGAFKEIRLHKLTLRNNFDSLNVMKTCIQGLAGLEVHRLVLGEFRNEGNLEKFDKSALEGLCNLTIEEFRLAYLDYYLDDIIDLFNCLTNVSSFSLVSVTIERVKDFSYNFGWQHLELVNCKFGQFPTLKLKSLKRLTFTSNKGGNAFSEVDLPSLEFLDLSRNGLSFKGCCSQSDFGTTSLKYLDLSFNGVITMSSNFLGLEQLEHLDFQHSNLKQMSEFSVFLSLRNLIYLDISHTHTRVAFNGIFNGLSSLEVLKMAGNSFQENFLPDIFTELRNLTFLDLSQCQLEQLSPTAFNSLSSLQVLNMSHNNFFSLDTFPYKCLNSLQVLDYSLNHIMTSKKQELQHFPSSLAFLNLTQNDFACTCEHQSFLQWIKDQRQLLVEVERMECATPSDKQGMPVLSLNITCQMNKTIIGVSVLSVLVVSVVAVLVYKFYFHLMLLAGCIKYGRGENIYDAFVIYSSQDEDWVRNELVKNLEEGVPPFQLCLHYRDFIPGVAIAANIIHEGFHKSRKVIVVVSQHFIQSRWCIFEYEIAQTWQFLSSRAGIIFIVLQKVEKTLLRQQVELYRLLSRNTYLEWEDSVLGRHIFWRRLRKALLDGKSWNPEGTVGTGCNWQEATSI
T2 sequence (Q9Y6Y9 17-160 partner limits assumed): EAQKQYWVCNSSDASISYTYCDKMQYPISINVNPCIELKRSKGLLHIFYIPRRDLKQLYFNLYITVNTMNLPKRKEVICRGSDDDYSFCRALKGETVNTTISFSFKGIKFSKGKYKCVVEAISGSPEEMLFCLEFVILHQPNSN
Protocol: as §1, §2, §3

[3] = biological target: T3, human TLR5 (Homo sapiens, UniProt O60602); assay: TLR ligand screening: NF-κB SEAP reporter in HEK293 cells expressing TLR5; conditions: one concentration: NTR001 10 uM, Inosine 100 uM, triplicate, FIG. 2
T3 construct: expressed in transfected cells; host or cells: HEK293
T3 sequence (O60602 21-858): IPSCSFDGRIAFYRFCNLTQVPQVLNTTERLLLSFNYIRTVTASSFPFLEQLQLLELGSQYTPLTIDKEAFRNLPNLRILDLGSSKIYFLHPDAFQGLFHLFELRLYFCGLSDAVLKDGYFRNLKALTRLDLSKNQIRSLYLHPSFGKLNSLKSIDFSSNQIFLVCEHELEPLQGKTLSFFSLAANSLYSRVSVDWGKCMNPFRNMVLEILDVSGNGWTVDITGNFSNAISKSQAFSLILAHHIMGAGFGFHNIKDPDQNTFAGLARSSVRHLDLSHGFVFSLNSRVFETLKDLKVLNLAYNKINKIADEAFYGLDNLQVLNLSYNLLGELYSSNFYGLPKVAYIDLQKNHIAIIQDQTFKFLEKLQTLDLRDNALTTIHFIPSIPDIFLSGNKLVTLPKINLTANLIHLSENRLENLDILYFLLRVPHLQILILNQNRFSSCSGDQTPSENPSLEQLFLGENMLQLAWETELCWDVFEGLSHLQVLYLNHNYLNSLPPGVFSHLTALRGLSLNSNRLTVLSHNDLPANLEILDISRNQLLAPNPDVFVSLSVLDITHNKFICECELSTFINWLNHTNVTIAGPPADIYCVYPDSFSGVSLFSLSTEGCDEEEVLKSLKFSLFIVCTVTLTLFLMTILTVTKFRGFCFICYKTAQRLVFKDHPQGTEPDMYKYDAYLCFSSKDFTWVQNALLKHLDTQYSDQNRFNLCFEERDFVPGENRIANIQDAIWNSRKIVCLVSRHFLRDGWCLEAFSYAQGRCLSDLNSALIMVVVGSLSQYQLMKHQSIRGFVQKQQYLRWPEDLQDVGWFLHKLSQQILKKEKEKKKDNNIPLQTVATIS
Protocol: as §1, §2, §3

[4] = biological target: T4, human TLR7 (Homo sapiens, UniProt Q9NYK1); assay: TLR ligand screening: NF-κB SEAP reporter in HEK293 cells expressing TLR7; conditions: one concentration: NTR001 10 uM, Inosine 100 uM, triplicate, FIG. 2
T4 construct: expressed in transfected cells; host or cells: HEK293
T4 sequence (Q9NYK1 27-1049): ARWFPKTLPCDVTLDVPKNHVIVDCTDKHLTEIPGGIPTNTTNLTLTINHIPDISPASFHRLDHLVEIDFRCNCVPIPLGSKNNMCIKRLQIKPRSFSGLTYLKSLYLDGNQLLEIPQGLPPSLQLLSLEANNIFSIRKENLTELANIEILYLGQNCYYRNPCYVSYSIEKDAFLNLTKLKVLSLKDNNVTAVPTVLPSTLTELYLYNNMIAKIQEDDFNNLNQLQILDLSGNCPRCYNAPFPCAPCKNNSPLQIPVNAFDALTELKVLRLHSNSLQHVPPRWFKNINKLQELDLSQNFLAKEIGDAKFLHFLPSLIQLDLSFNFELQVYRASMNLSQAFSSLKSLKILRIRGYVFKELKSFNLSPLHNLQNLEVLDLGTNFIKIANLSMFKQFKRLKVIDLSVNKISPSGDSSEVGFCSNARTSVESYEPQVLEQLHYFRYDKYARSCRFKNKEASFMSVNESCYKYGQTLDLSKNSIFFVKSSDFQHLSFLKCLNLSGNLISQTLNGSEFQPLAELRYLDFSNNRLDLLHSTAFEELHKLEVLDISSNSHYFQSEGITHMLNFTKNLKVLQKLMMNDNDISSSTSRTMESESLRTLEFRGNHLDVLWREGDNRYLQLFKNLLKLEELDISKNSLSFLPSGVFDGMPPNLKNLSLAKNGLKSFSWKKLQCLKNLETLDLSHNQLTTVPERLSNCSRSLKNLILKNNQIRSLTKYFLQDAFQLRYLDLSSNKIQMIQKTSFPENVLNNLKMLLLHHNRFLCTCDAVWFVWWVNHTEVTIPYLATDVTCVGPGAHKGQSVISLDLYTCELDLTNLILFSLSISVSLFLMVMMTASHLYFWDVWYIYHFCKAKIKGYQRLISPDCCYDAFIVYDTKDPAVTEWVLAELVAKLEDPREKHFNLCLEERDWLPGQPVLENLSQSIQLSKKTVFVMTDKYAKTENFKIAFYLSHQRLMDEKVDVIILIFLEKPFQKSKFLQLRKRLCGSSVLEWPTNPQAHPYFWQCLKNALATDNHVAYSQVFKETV
Protocol: as §1, §2, §3

| SMILES | stimulatory effect on human TLR3 (NF-κB activation) [1] | stimulatory effect on human TLR4 (NF-κB activation) [2] | stimulatory effect on human TLR5 (NF-κB activation) [3] | stimulatory effect on human TLR7 (NF-κB activation) [4] |
| --- | --- | --- | --- | --- |
| OC[C@H]1O[C@@H](n2cnc3c(O)ncnc32)[C@H](O)[C@@H]1O [Inosine, inosine] | do not exhibit a stimulatory effect | do not exhibit a stimulatory effect | do not exhibit a stimulatory effect | do not exhibit a stimulatory effect |
| O=c1[nH]cnc2c([C@@H]3N[C@H](CO)[C@@H](O)[C@H]3O)c[nH]c12 [NTR001, 7-[(2S,3S,4R,5R)-3,4-dihydroxy-5-(hydroxymethyl)-2-pyrrolidinyl]-1,5-dihyro-4-H-pyrrolo-[3,2-d]pyrimidin-4-one] | do not exhibit a stimulatory effect | do not exhibit a stimulatory effect | do not exhibit a stimulatory effect | do not exhibit a stimulatory effect |
